We go through 2 molecules from patent EP0532759A1, “NOVEL ALLYL ALCOHOL DERIVATIVE” (TSUMURA & CO., priority 1991, dated 1992).

Where two headings read alike, the source gives them in different places. Marks after values point to notes of the source that are not given here.

One data set has as its system rat. The data set can be described thus: Analgesic activity test (Randall-Selitto method, Brewer's yeast). The data set is classed as in vivo. The protocol: Experimental was made with "Randall-Selitto" analgesic effect measuring apparatus (manufactured by Ugo Basile in Italy), pressure was applied through a pressure terminal, and the pressure (g) applied at the time showing a wriggling motion in rat was measured as a threshold value for pain. The threshold value for pain was measured for each leg, and rats showing substantially the same degree of threshold value for pain were selected and used for the experiment. A 20 % aqueous Brewer's yeast solution was subcutaneously administered in an amount of 0.1 ml to the right hind paw of the rat, and the threshold value for pain was measured on both legs 30 min and 60 min after the administration of the aqueous solution. At the same time, a suspension of the compound of the present invention in a 2 % polysorbate 80 physiological saline (prepared by dissolving the compound of the present invention in polysorbate 80 in an amount of 2 % of the whole amount of the solution and gradually adding and mixing physiological saline therewith) was intravenously and orally administered, and the threshold value for pain of both legs was measured 15 min, 30 min, 60 min, 90 min and 120 min after the administration. The measurements were compared with the control group, and an increase in the threshold value for pain was regarded as an evidence for the analgesic activity.

A further data set concerns ICR mouse. The data set can be described thus: Arachidonic acid ear lobe edema inhibiting test. It counts as in vivo. The conditions noted are these: 1 mg per 20 µl acetone applied to auricle; 2 mg arachidonic acid 30 min later; ear thickness after one hour; versus control. On the procedure:
1 mg of the novel allyl alcohol derivative per 20 µl of acetone were applied to the auricle on the inside of the right of an ICR mouse (female, 8 - 11 weeks old). 30 min after the application, 10 µl of an acetone solution containing 2 mg of arachidonic acid was applied to the same site, and one hour after the application of the acetone solution, the thickness of the ear was measured by means of a dial thickness gauge. An equal weight of acetone was applied to the auricle on the left side, and measurement was conducted in the same manner as that described above, and […] was regarded as swelling of the ear. Further, a group wherein the solvent was applied instead of the sample was used as a control, and the ear lobe edema inhibition was determined by the following equation. [formula]

Another data set is described as follows: LD50 (acute toxicity). The conditions noted are these: in vivo, mouse, 72 hr after administration, read-out: LD₅₀. The protocol: A suspension of the compound of the present invention in a 2 % polysorbate 80 physiological saline (prepared by dissolving the compound of the present invention in polysorbate 80 in an amount of 2 % of the whole amount of the solution and gradually adding and mixing physiological saline therewith) was intravenously and orally administered to a mouse, and 72 hr after the administration, the LD₅₀ was calculated based on whether the mouse had survived or was dead. In the calculation, the up-and-down method was used for the intravenous administration, while the Litchfield-Wilcoxon method was used for the oral administration.

Another data set has as its target cyclooxygenase. The data set is described as follows: Cyclooxygenase inhibitory activity (PGE2 formation from [1-14C] arachidonic acid). The conditions noted are these: microsome fraction of rabbit kidney medulla; 37°C, 15 min; PGE2 radioactivity; read-out: IC₅₀. It counts as biochemical. The protocol: 60 ml of a 0.1 M phosphate buffer (pH: 7.5) containing 1 mM glutathione was added to 7.0 g of medulla of kidney of a rabbit, and the mixture was homogenized through the use of a polytron. The resultant homogenate was centrifuged at 9,000 x G for 20 min to obtain a microsome fraction. This fraction was dissolved in 7 ml of a 0.1 M phosphate buffer (pH: 7.5) containing 1 […] glutathione to give a cyclooxygenase enzyme preparation.
4 mM glutathione, 10 mM tryptophan, 0.25 µM hemoglobin (each in final concentration) and a phosphate buffer (pH: 7.5) were added to 15 µl of the enzyme preparation thus prepared, and [1-¹⁴C] arachidonic acid (5 x 10⁴ dpm) and the compound of the present invention were further added thereto in such a manner that the concentrations were 40 µM, 20 µM, 10 µM and 5 µM, respectively (total amount: […]). The mixture was incubated at 37°C for 15 min, and 1 N hydrochloric acid was added thereto to terminate the reaction. Prostaglandin E₂ (PGE₂) was added thereto as a carrier, and the reaction product was extracted with 2 ml of an ether. The resultant extract was concentrated and applied to thin layer chromatography (development solvent = chloroform : methanol : acetic acid = 18 : 1 : 1) to separate a product. […] The PGE₂ radioactivity was measured by means of a liquid scintillation counter.

In the next data set the test system is balb/c 3T3 cells. The data set can be described thus: Inhibition of EGF-accelerated fibroblast growth (3H-thymidine incorporation). The data set is classed as cell-based. The settings on record: 0.5 µg per hole compound, 50 pg per hole mouse EGF. The protocol: A culture solution (hereinafter referred to as "CS DMEM") containing 10 % calf serum adjusted in such a manner that fibroblast (balb/c 3T3 cells) was contained in a concentration of 2.5 x 10⁴ cells per 0.5 ml was incubated on a 24-hole plate in an amount of 1 ml per hole. After the fibroblast was saturated in a monolayer state, cultivation was conducted at 37°C for 12 hr in 1% CS DMEM instead of the above medium through the use of 5 % CO₂. 0.5 µg per hole of the compound of the present invention and 50 pg per hole of mouse EGF were added thereto, and the cultivation was further conducted for 16 hr. ³H-thymidine in an amount of 0.5 µCi/50 µl/well was added thereto, and the mixture was cultivated for 8 hr. Then, the culture solution was removed, and washing was conducted with a cooled isotonic phosphate buffer. A 5 % cold trichloroacetic acid was added thereto, and the mixture was allowed to stand for 30 min. The supernatant was removed, and the residue was dissolved in a 0.5 M sodium hydroxide solution. The solution was neutralized with 0.5 M hydrochloric acid, a scintillation cocktail was added thereto, and counting was conducted by means of a liquid scintillation counter. The radioactivity of ³H-thymidine incorporated into the cells accompanying the growth was measured to study the function of the novel allyl alcohol on the growth of the cell.
(Uptake of a labelled nucleoside into DNA is a usual measure of proliferation.)

In another data set the target is T1, 5-lipoxygenase (Rattus norvegicus, UniProt P12527).
T1 construct: endogenous in cells; host or cells: RBL-1 cells (sonicated, 105,000 x G supernatant)
T1 sequence (P12527 1-673): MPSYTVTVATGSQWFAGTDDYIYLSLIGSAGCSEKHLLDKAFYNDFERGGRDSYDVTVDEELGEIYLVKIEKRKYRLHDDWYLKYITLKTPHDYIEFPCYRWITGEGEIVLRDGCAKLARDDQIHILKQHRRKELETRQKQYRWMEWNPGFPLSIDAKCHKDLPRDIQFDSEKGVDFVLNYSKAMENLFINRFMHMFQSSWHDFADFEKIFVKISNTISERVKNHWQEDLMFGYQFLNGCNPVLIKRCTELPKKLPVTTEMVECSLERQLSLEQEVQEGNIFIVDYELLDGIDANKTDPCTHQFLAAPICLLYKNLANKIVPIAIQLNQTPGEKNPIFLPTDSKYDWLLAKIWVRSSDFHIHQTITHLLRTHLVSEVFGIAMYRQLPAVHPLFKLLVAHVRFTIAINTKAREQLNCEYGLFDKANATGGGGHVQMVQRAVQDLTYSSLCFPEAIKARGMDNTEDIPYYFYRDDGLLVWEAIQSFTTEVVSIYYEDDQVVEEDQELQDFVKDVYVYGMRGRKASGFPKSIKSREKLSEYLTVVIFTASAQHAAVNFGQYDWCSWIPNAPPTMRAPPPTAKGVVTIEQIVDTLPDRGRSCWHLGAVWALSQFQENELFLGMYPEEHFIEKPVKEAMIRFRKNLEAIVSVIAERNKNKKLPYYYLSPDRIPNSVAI
The data set is described as follows: 5-Lipoxygenase inhibitory activity (5-HETE formation, HPLC). It counts as biochemical. The conditions noted are these: enzyme preparation from RBL-1 culture cells; 10 µM arachidonic acid; 37°C, 10 min; read-out: IC₅₀. On the procedure: RBL-1 culture cells were suspended in a 50 mM phosphate buffer (pH: 7.4) containing 1 mM ethylenediaminetetraacetic acid (EDTA) and 10 % ethylene glycol so that the concentration was 5 x 10⁶ cells/ml. The suspension was subjected to an ultrasonic treatment and centrifuged at 10,000 x G for 10 min and further at 105,000 x G for 60 min. The resultant supernatant was used as a 5-lipoxygenase enzyme preparation.
50 mM phosphate buffer, 15 mM calcium chloride, 20 µM indomethacin, 18 mM glutathione, 6 mM adenosine triphosphate (ATP), 10 µM arachidonic acid, the enzyme preparation prepared above and an ethanol solution of the compound of the present invention were placed in a test tube in such a manner that the whole quantity was 0.6 ml and the final concentration was 5 µM, 1 µM and 0.5 µM. A reaction was allowed to proceed at 37°C for 10 min. After the completion of the reaction, 1.2 ml of acetone and 100 µl of 2 N formic acid were added thereto to terminate the reaction. […] The resultant extract was concentrated and dissolved in methanol, and the content of […] in the solution was measured by means of high performance liquid chromatography [column = TSK-gel ODS-80 TM (manufactured by Tosoh Corporation); mobile phase = acetonitrile : water : acetic acid (60 : 40 : 0.02); flow rate = 1 ml/min; ultraviolet rays for detection = 235 nm]. […]

Data set [1] relates to microvascular endothelial cells derived from human caul. The data set is described as follows: Proliferation and migration of microvascular endothelial cells (Boyden chamber, EGF). It counts as cell-based. The conditions noted are these: Endothelial cell, 10 µM/ml compound, 10 ng/ml EGF, cells that came out into the lower chamber, read-out: percentage inhibition. On the procedure:
5 x 10⁴ microvascular endothelial cells derived from human caul were placed in an upper chamber of a Boyden chamber, and 10 ng/ml of EGF was added as a control to a lower chamber separated from the upper chamber by means of a filter having a pore size of 5 µm (a polycarbonate filter manufactured by Nucleobore). 10 ng/ml of EGF and 10 µM/ml of the compound of the present invention were added to the drug administration group . The number of cells which had come out into the lower chamber was measured in terms of cells per HPF […].

Data set [2] relates to platelet-rich plasma (PRP). The data set can be described thus: Platelet aggregation inhibition test (Born method, in vitro). The data set is classed as cell-based. The settings on record: Rattus norvegicus; for inhibition at 5 µM: compound 5 µM; for inhibition at 20 µM: compound 20 µM. On the procedure: Blood was collected from a rat subjected to fasting for 12 hr so that the volume of 3.8 % sodium citrate became 1/10. The collected blood was centrifuged at room temperature and 159 x G for 10 min to collect a platelet-rich plasma (PRP). The remaining blood was centrifuged at room temperature and 1800 x G for 10 min to collect PPP (platelet poor plasma). The number of platelets was measured by means of PC-603A manufactured by Erma and adjusted to 3 x 10⁸/ml with PPP. The aggregation capability was measured according to the Born method with the concentration of PRP being 0 % (PPP) and 100 % […] through the use of a 4 channel NKK HEMATRACER aggregation meter. In an in vitro test, the novel allyl alcohol derivative was added in a concentration of 5 µM or 20 µM, the mixture was pre-incubated at 37°C for 3 min. An aggregation inducer was added thereto, and the aggregation capability was measured. Adenine diphosphate (ADP), collagen, epinephrine and arachidonic acid were used as the aggregation inducer. The concentration of the aggregation inducer was 2 µM for ADP, 1 µg/ml for collagen, 400 µM for arachidonic acid and 6 µg/ml of epinephrine. The novel ally] alcohol derivative was applied to the experiment after dissolution in dimethylsulfoxide (DMSO). The final concentration of DMSO thereof was 0.4 %, the addition of DMSO alone in this concentration had no clear effect on the aggregation of the platelet.

Where [3] appears, read: 140 mg/kg, 15 min after administration, control 123.
[4] abbreviates: 140 mg/kg, 30 min after administration, control 115.
The mark [5] stands for this setting: 140 mg/kg, 60 min after administration, control 108.
Setting [6] is: inducer arachidonic acid 400 µM.

As to `Cc1c(N(C)C)c(=O)n(-c2ccccc2)n1C` [Aminopyrine, reference compound], the entries for the “Threshold value for pain (g)” value with rat (setting [3]), with rat (setting [4]) and in the data set on rat (setting [5]) were 190^b g, 235^b g and 212^b g, respectively.

A word on the inhibition: it is the share of the control response that was lost under treatment. `CCCCC/C=C/C(O)CCc1ccc(O)c(OC)c1` (stereo not shown) [compound of the present invention] gave an edema inhibition in the data set with ICR mouse of 83%. Moreover, the LD50 at 72 hr was 75.6 mg/kg in “LD50 (acute toxicity)” (Intravenous, up-and-down method) and 1340 mg/kg in “LD50 (acute toxicity)” (Oral, Litchfield-Wilcoxon method). Also, the IC50 worked out at 7.62 µM on cyclooxygenase and 540 nM at 5-lipoxygenase. The growth inhibition in the data set on balb/c 3T3 cells is on record as 72.9%. Also, the inhibition at 10 µM in data set [1] came out at 82%. For the same molecule, the inhibition at 5 µM worked out at 12% in data set [2] (inducer ADP 2 µM), 67% in data set [2] (setting [6]), 21% in data set [2] (inducer collagen 1 µg/ml) and 52% in data set [2] (inducer epinephrine 6 µg/ml). In addition, the inhibition at 20 µM turned out to be 26% in data set [2] (inducer ADP 2 µM), 96% in data set [2] (setting [6]), 43% in data set [2] (inducer collagen 1 µg/ml) and 63% in data set [2] (inducer epinephrine 6 µg/ml). The “Threshold value for pain (g)” value was 153^a g with rat (70 mg/kg, 15 min after administration, control 123); 183^b g with rat (70 mg/kg, 30 min after administration, control 115); 142^a g with rat (70 mg/kg, 60 min after administration, control 108); 190^b g with rat (setting [3]); 222^b g with rat (setting [4]); 210^b g in the data set with rat (setting [5]). For the same molecule, in the data set on rat (dose of 5 mg/kg, within 15 to 60 min, p < 0.05), the “threshold value for pain as compared with the control group” value is reported as “significant increase”.
